# From PubChem BioAssay (NCI)
#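 Five concentrations, 48 hours, 96-well plates. GI50 is the concentration that inhibits growth by half. Definition used: TGI = concentration required for complete inhibition of growth.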
# What was measured:
# Assay in all cases: DTP human tumour cell line panel, 48 h
# [1] = system: LOX IMVI melanoma
# [2] = system: IGROV1 ovarian
# [3] = system: PC-3 prostate
# [4] = system: MOLT-4 leukemia
# [5] = system: CCRF-CEM leukemia
# [6] = system: SNB-19 CNS
# [7] = system: MDA-MB-435
# [8] = system: OVCAR-4 ovarian
# [9] = system: HL-60(TB) leukemia
# [10] = system: HCC-2998 colon
Structure (SMILES),GI50 [1] [µM],TGI [1] [µM],GI50 [2] [µM],TGI [2] [µM],GI50 [3] [µM],TGI [3] [µM],GI50 [4] [µM],TGI [4] [µM],GI50 [5] [µM],TGI [5] [µM],GI50 [6] [µM],TGI [6] [µM],GI50 [7] [µM],TGI [7] [µM],GI50 [8] [µM],TGI [8] [µM],GI50 [9] [µM],TGI [9] [µM],TGI [10] [µM],GI50 [10] [µM]
CCOC(=O)c1sc(-c2ccc(OS(=O)(=O)C[C@]34CCC(CC3=O)C4(C)C)c(C=O)c2)nc1C,1.05,2.34,1.07,2.85,1.4,> 50,0.797,2.22,1.01,> 50,0.898,2.15,1.06,2.76,1.49,> 50,1.27,3.29,,
COc1ccc(O)c(C(=O)CCC(=O)O)c1,,> 100,,> 100,,,,> 100,,> 100,,> 100,,,,> 100,,> 100,> 100,
Clc1ccccc1CN1COc2c(ccc3cccnc23)C1,,22.5,,11.6,,,,6.77,,1.74,,> 100,,,,14.6,,4.33,19.6,
COc1ccc(Nc2nc(Nc3cc(C)[nH]n3)c3cc(OC)c(OC)cc3n2)cc1,0.441,1.7,,,,,0.389,2.58,,,1.56,3.18,1.23,2.58,0.789,2.22,,,2.9,1.32
COc1ccc(C2=NC(=O)NC2c2ccc(OC)cc2)cc1 (centres undefined),12.4,> 100,23.2,> 100,,,1.2,96.7,38.9,> 100,16.9,> 100,1.73,4.56,31.5,> 100,2.2,15.6,33.6,13
COc1cc(C2=NN(C(C)=O)C(c3cc(OC)c(OC)c(OC)c3)C2)ccc1O (centres undefined),0.618,> 100,0.584,> 100,0.304,> 100,0.381,> 100,0.342,,0.491,> 100,,,0.532,> 100,0.182,0.514,> 100,0.539
COC(=O)C(=O)C(CC(=O)Nc1ccc(C)cc1)C(=O)OC (centres undefined),,> 100,,> 100,,,,> 100,,> 100,,> 100,,,,> 100,,> 100,> 100,
C=C1C(=O)C23[C@H](O)C1CC[C@H]2[C@]12COC3(O)[C@@H](O)[C@@H]1C(C)(C)CC[C@@H]2O,,33.3,,38.7,,,,33.1,,95,,32.7,,,,33.5,,47.3,29.9,
CN(C)c1ccc(/C=C(\NC(=O)c2ccccc2)c2nc3ccc4c(c3[nH]2)C(=O)c2ccccc2C4=O)cc1,,> 100,,> 100,,,,31.3,,> 100,,> 100,,,,> 100,,,> 100,
